Assay results from patent US20240317727A1 (Duke University, priority 2018, published 2024).

Target: T1, recombinant HSF1 DNA-binding domain (DBD) (Homo sapiens, UniProt Q00613)
T1 sequence (Q00613 15-120): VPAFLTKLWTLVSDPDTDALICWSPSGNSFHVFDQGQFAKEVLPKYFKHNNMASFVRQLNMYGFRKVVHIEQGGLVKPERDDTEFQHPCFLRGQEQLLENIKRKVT
Assay: Differential Scanning Fluorimetry (DSF), HSF1 DBD melting temperature
Settings: Table 1; 5 μM HSF1 DBD, 25PM Compound; positive = stabilizes, negative = destabilizes HSF1

| ΔTm at 25 µM | SMILES | ΔTm |
| --- | --- | --- |
| 5.43 °C | O=C(N/C=C/c1ccsc1)Nc1cc(Cl)ccc1F [Compound 0010] |  |
| -4.56 °C | Cn1ncc(S(=O)(=O)Cc2ccccc2)c(Cl)c1=O [Compound 0014] |  |
| 2.75 °C | O=c1c(Nc2ccc(F)c(F)c2)c(Nc2ccc(Cl)c(S(=O)(=O)C(F)(F)F)c2)c1=O [Compound 0016, 3-[4-chloro-3-(trifluoromethylsulfonyl)anilino]-4-(3,4-difluoroanilino)cyclobut-3-ene-1,2-dione] |  |
| 2.78 °C | O=C(Nc1ccccc1)Nc1ccc(Cl)c(Cl)c1 [Compound 0022, 1-(3,4-dichlorophenyl)-3-phenylurea] |  |
| -9.69 °C | O=C(Nc1cccnc1)c1cc2c(s1)-c1ccccc1CC2 [Compound 0028] |  |
| -8.96 °C | O=C(CSc1nnc(-c2ccncc2)n1-c1ccccc1)N/N=C/c1cccnc1 [Compound 0029] |  |
| 1.9 °C | O=S1(=O)N=C(Nc2ccc(F)cc2)C(Nc2ccc(Cl)c(C(F)(F)F)c2)=N1 [Compound 0033, N3-[4-chloro-3-(trifluoromethyl)phenyl]-N4-(4-fluorophenyl)-1,1-dioxo-1,2,5-thiadiazole-3,4-diamine] |  |
| 5.7 °C | O=C(Nc1ccc(F)c(F)c1)Nc1ccc(Cl)c([N+](=O)[O-])c1 [Compound 0034, 1-(4-chloro-3-nitrophenyl)-3-(3,4-difluorophenyl)urea] |  |
| 6.44 °C | O=C(Nc1cccc(C(F)(F)F)c1)Nc1ccc2nonc2c1 [Compound 0035] |  |
| 2.61 °C | COc1ccc(NC(=O)Nc2ccc(Cl)cc2)cc1 [Compound 0036, 1-(4-chlorophenyl)-3-(4-methoxyphenyl)urea] |  |
| -9.74 °C | O=C(N/N=C/c1cccnc1)c1ccc(=O)[nH]n1 [Compound 0037] |  |
| -4.28 °C | Cc1cc(N)c2ccccc2c1O [Compound 0039] |  |
| -3.11 °C | CC(=O)NC1C(O)OC(OS(=O)(=O)O)C(O)C1OC1CC(C(=O)O)C(O)C(O)C1O (stereo not drawn) [Compound 0041] |  |
| -9.07 °C | CCOC(=O)N1CCN(C2=Nc3cc(Cl)ccc3C(C)C2)CC1 (stereo not drawn) [Compound 0043] |  |
| 2.33 °C | O=C(Nc1ccc(Cl)c(Cl)c1)Nc1ccc(Cl)c([N+](=O)[O-])c1 [Compound 0044, 1-(4-chloro-3-nitrophenyl)-3-(3,4-dichlorophenyl)urea] |  |
| 4.3 °C | Cc1ccc(NC(=O)Nc2ccc(Cl)c([N+](=O)[O-])c2)cc1 [Compound 0046, 1-(4-chloro-3-nitrophenyl)-3-(p-tolyl)urea] |  |

Continued, molecule first:

| SMILES | ΔTm at 25 µM | ΔTm |
| --- | --- | --- |
| O=C(Nc1ccc(Cl)cc1)Nc1ccc(Cl)c(Cl)c1 [Compound 0001] | 4.78 °C |  |
| O=c1c(Nc2ccc(F)cc2)c(Nc2ccc(Cl)c([N+](=O)[O-])c2)c1=O [Compound 0002, 3-(4-chloro-3-nitro-anilino)-4-(4-fluoroanilino)cyclobut-3-ene-1,2-dione] | 1.9 °C |  |
| O=C(Nc1ccc(F)cc1)Nc1cccc(C(F)(F)F)c1 [Compound 0003, 1-(4-fluorophenyl)-3-(3-(trifluoromethyl)phenyl)urea] | 1.78 °C |  |
| Cc1ccc(CNC(=O)CSc2nnc(-c3cccc(N)c3)n2-c2ccccc2)cc1 [Compound 0004] | -9.46 °C |  |
| O=[N+]([O-])c1cc(C(F)(F)F)cc([N+](=O)[O-])c1O/N=C1\CSCc2ccccc21 [Compound 0008] | -4.56 °C |  |
| COc1ccc(NC(=O)Nc2ccc(C)cc2)cc1 [Compound 0011, 1-(4-methoxyphenyl)-3-(p-tolyl)urea] | 2.61 °C |  |
| O=[N+]([O-])c1cc(C(F)(F)F)cc([N+](=O)[O-])c1Oc1ccc(F)cc1F [Compound 0012] | -4.73 °C |  |
| COC(=O)c1cc(C#N)c(Sc2c([N+](=O)[O-])cc(C(F)(F)F)cc2[N+](=O)[O-])nc1C(OC)OC [Compound 0013] | -7.4 °C |  |
| Oc1ccccc1/C=N/NC(=S)Nc1cccc(Cl)c1 [Compound 0015] | 3.44 °C |  |
| O=C(Nc1ccc(Cl)cc1)Nc1ccc(Cl)cc1 [Compound 0018, 1,3-bis(4-chlorophenyl)urea] | 2.44 °C |  |
| O=C(Nc1cccc(F)c1)Nc1ccc(Cl)c([N+](=O)[O-])c1 [Compound 0020, 1-(4-chloro-3-nitrophenyl)-3-(3-fluorophenyl)urea] | 5.2 °C |  |
| CCOC(=O)c1c(Cl)c2ccccc2oc1=O [Compound 0021] | -9.19 °C |  |
| CN(C(=O)Nc1ccc(Cl)c([N+](=O)[O-])c1)c1ccc(F)cc1 [Compound 0023, 3-(4-chloro-3-nitro-phenyl)-1-(4-fluorophenyl)-1-methyl-urea] | 0.67 °C |  |
| Oc1ccc(Cl)cc1/C=N/Nc1cccc(C(F)(F)F)c1 [Compound 0024] | 4.44 °C |  |
| Cc1ccc(CNC(=O)CSc2nnc(-c3ccc(C)cc3)n2-c2ccccc2)cc1 [Compound 0025] | -9.21 °C |  |
| Cc1cccc(NC(=O)Nc2ccc(Cl)c([N+](=O)[O-])c2)c1 [Compound 0026, 1-(4-chloro-3-nitrophenyl)-3-(m-tolyl)urea] | 5.75 °C |  |
| O=C(Nc1ccc(F)cc1)Nc1ccc2nonc2c1 [Compound 0027, 1-(2,1,3-benzoxadiazol-5-yl)-3-(4-fluorophenyl)urea] | 2.8 °C |  |
| Cc1ccc(-n2c(SCC(=O)NC(C)c3ccccc3)nnc2-c2ccccc2)cc1 (stereo not drawn) [Compound 0030] | -8.57 °C |  |
| CSc1nnc(SC2=CC(=O)CC(c3ccccc3)C2)s1 (stereo not drawn) [Compound 0031] | -6.23 °C |  |
| N=C(Nc1ccc(F)cc1)Nc1ccc(Cl)c(C(F)(F)F)c1 [Compound 0032, 1-[4-chloro-3-(trifluoromethyl)phenyl]-3-(4-fluorophenyl)guanidine] | 0.75 °C |  |
| O=[N+]([O-])c1cc(/C=N/Nc2ccc(Br)c(Cl)c2)cs1 [Compound 0038] | 7.27 °C |  |
| Cc1cc(C(C#N)c2ccc(Cl)cc2)c(Cl)cc1NC(=O)c1cc(I)cc(I)c1O (stereo not drawn) [Compound 0040] | -7.95 °C |  |
| CC1CC(=O)Oc2cc(Oc3c([N+](=O)[O-])cc(C(F)(F)F)cc3[N+](=O)[O-])ccc21 (stereo not drawn) [Compound 0042] | -6.23 °C |  |
| O=C(Nc1cccc(Cl)c1)O/N=C/c1ccc(F)cc1 [Compound 0045] |  | −8.21 |
| N#CN=C(Nc1ccc(F)cc1)Nc1ccc(Cl)c([N+](=O)[O-])c1 [Compound 0047, 1-(4-chloro-3-nitro-phenyl)-2-cyano-3-(4-fluorophenyl)guanidine] | 0.75 °C |  |

Same assay, conditions: Table 3; 5 μM HSF1 DBD, 25PM Compound; positive = stabilizes, negative = destabilizes HSF1

| ΔTm at 25 µM | SMILES |
| --- | --- |
| 1.9 °C | O=c1c(Nc2ccc(F)cc2)c(Nc2ccc(Cl)c([N+](=O)[O-])c2)c1=O [Compound 002, 3-(4-chloro-3-nitro-anilino)-4-(4-fluoroanilino)cyclobut-3-ene-1,2-dione] |
| 2.5 °C | Cc1cccc(NC(=O)Nc2cccc(Cl)c2)c1 [Compound 006, 1-(3-chlorophenyl)-3-(m-tolyl)urea] |
| 2.61 °C | COc1ccc(NC(=O)Nc2ccc(C)cc2)cc1 [Compound 011, 1-(4-methoxyphenyl)-3-(p-tolyl)urea] |
| 2.44 °C | O=C(Nc1ccc(Cl)cc1)Nc1ccc(Cl)cc1 [Compound 018, 1,3-bis(4-chlorophenyl)urea] |
| 5.2 °C | O=C(Nc1cccc(F)c1)Nc1ccc(Cl)c([N+](=O)[O-])c1 [Compound 020, 1-(4-chloro-3-nitrophenyl)-3-(3-fluorophenyl)urea] |
| 2.8 °C | O=C(Nc1ccc(F)cc1)Nc1ccc2nonc2c1 [Compound 027, 1-(2,1,3-benzoxadiazol-5-yl)-3-(4-fluorophenyl)urea] |
| 1.9 °C | O=S1(=O)N=C(Nc2ccc(F)cc2)C(Nc2ccc(Cl)c(C(F)(F)F)c2)=N1 [Compound 033, N3-[4-chloro-3-(trifluoromethyl)phenyl]-N4-(4-fluorophenyl)-1,1-dioxo-1,2,5-thiadiazole-3,4-diamine] |
| 4.3 °C | Cc1ccc(NC(=O)Nc2ccc(Cl)c([N+](=O)[O-])c2)cc1 [Compound 046, 1-(4-chloro-3-nitrophenyl)-3-(p-tolyl)urea] |

Further lines, the molecule ahead of its results:

| SMILES | ΔTm at 25 µM |
| --- | --- |
| O=C(Nc1ccc(F)cc1)Nc1cccc(C(F)(F)F)c1 [Compound 003, 1-(4-fluorophenyl)-3-(3-(trifluoromethyl)phenyl)urea] | 1.78 °C |
| O=C(Nc1ccc(F)cc1)Nc1ccc(Br)c(C(F)(F)F)c1 [Compound 005, 1-(4-bromo-3-(trifluoromethyl)phenyl)-3-(4-fluorophenyl)urea] | 5.1 °C |
| O=c1c(Nc2ccc(F)c(F)c2)c(Nc2ccc(Cl)c(S(=O)(=O)C(F)(F)F)c2)c1=O [Compound 016, 3-[4-chloro-3-(trifluoromethylsulfonyl)anilino]-4-(3,4-difluoroanilino)cyclobut-3-ene-1,2-dione] | 2.75 °C |
| O=C(Nc1ccc(F)cc1)Nc1ccc(Cl)c([N+](=O)[O-])c1 [Compound 017, 1-(4-chloro-3-nitrophenyl)-3-(4-fluorophenyl)urea] | 3 °C |
| O=C(Nc1ccccc1)Nc1ccc(Cl)c(Cl)c1 [Compound 022, 1-(3,4-dichlorophenyl)-3-phenylurea] | 2.78 °C |
| CN(C(=O)Nc1ccc(Cl)c([N+](=O)[O-])c1)c1ccc(F)cc1 [Compound 023, 3-(4-chloro-3-nitro-phenyl)-1-(4-fluorophenyl)-1-methyl-urea] | 0.67 °C |
| Cc1cccc(NC(=O)Nc2ccc(Cl)c([N+](=O)[O-])c2)c1 [Compound 026, 1-(4-chloro-3-nitrophenyl)-3-(m-tolyl)urea] | 5.75 °C |
| N=C(Nc1ccc(F)cc1)Nc1ccc(Cl)c(C(F)(F)F)c1 [Compound 032, 1-[4-chloro-3-(trifluoromethyl)phenyl]-3-(4-fluorophenyl)guanidine] | 0.75 °C |
| O=C(Nc1ccc(F)c(F)c1)Nc1ccc(Cl)c([N+](=O)[O-])c1 [Compound 034, 1-(4-chloro-3-nitrophenyl)-3-(3,4-difluorophenyl)urea] | 5.7 °C |
| COc1ccc(NC(=O)Nc2ccc(Cl)cc2)cc1 [Compound 036, 1-(4-chlorophenyl)-3-(4-methoxyphenyl)urea] | 2.61 °C |
| O=C(Nc1ccc(Cl)c(Cl)c1)Nc1ccc(Cl)c([N+](=O)[O-])c1 [Compound 044, 1-(4-chloro-3-nitrophenyl)-3-(3,4-dichlorophenyl)urea] | 2.33 °C |
